Test results published in PubChem BioAssay (NCI).
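In this assay, cells in 96-well plates receive the compound at five concentrations for 48 hours. Endpoints are linearly interpolated between the surrounding concentrations. TGI: total growth inhibition.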

What was measured:
Experiment in all cases: growth of human tumour cells (NCI), 48 h
ACHN renal = tested on: ACHN renal
CAKI-1 renal = tested on: CAKI-1 renal
HCT-116 colon = tested on: HCT-116 colon
HOP-62 NSCLC = tested on: HOP-62 NSCLC
HS 578T breast = tested on: HS 578T breast
MCF7 breast = tested on: MCF7 breast
MDA-MB-231 breast = tested on: MDA-MB-231 breast
MDA-MB-435 = tested on: MDA-MB-435
NCI-H23 lung = tested on: NCI-H23 lung
NCI/ADR-RES ovarian = tested on: NCI/ADR-RES ovarian
OVCAR-4 ovarian = tested on: OVCAR-4 ovarian
RPMI-8226 leukemia = tested on: RPMI-8226 leukemia
RXF 393 renal = tested on: RXF 393 renal
SN12C renal = tested on: SN12C renal
T-47D breast = tested on: T-47D breast
U251 CNS = tested on: U251 CNS
UACC-62 melanoma = tested on: UACC-62 melanoma
HL-60(TB) leukemia = tested on: HL-60(TB) leukemia
MOLT-4 leukemia = tested on: MOLT-4 leukemia
NCI-H522 lung = tested on: NCI-H522 lung

| SMILES | TGI (ACHN renal) | TGI (CAKI-1 renal) | TGI (HCT-116 colon) | TGI (HOP-62 NSCLC) | TGI (HS 578T breast) | TGI (MCF7 breast) | TGI (MDA-MB-231 breast) | TGI (MDA-MB-435) | TGI (NCI-H23 lung) | TGI (NCI/ADR-RES ovarian) | TGI (OVCAR-4 ovarian) | TGI (RPMI-8226 leukemia) | TGI (RXF 393 renal) | TGI (SN12C renal) | TGI (T-47D breast) | TGI (U251 CNS) | TGI (UACC-62 melanoma) | TGI (HL-60(TB) leukemia) | TGI (MOLT-4 leukemia) | TGI (NCI-H522 lung) |
| --- | --- | --- | --- | --- | --- | --- | --- | --- | --- | --- | --- | --- | --- | --- | --- | --- | --- | --- | --- | --- |
| CC1(C)C2CCC1(C)C(N/C(=C(/C(Cl)=C(Cl)Cl)[N+](=O)[O-])n1nnc3ccccc31)C2 (stereo not drawn) | 42.1 µM | 37 µM | > 100 µM | 67 µM | 43.6 µM | > 100 µM | 53.7 µM | 46.2 µM | 52.2 µM | 97.6 µM | 60.7 µM | > 100 µM | 36.5 µM | > 100 µM | > 100 µM | 43.3 µM | 46 µM | – | – | – |
| CN(C)c1ccc(/C=N/n2c(-c3ccccc3)nc3ccccc3c2=O)cc1 | > 100 µM | > 100 µM | > 100 µM | > 100 µM | 92.4 µM | > 100 µM | > 100 µM | > 100 µM | > 100 µM | > 100 µM | > 100 µM | > 100 µM | – | > 100 µM | > 100 µM | > 100 µM | > 100 µM | > 100 µM | > 100 µM | > 100 µM |
| COc1ccccc1C1=C2C(=O)N(C)C(c3ccccc3OC)=C2C(=O)N1C | > 100 µM | > 100 µM | > 100 µM | 43.9 µM | 97.1 µM | > 100 µM | > 100 µM | > 100 µM | > 100 µM | > 100 µM | > 100 µM | – | – | > 100 µM | > 100 µM | > 100 µM | > 100 µM | > 100 µM | > 100 µM | > 100 µM |
| Cc1ccc(C2(N3CCCC3)OC(C)(C)c3cccc4cccc2c34)cc1 (stereo not drawn) | 29.9 µM | 36.5 µM | 38.4 µM | 32.3 µM | 31.8 µM | 32.5 µM | – | 28 µM | 29.9 µM | 30.1 µM | 27.6 µM | 71.9 µM | 27.1 µM | 32.6 µM | 46.9 µM | 29.4 µM | 27.5 µM | > 100 µM | > 100 µM | 25.6 µM |
| C[C@]12CC[C@H](O)CC1=CC[C@@H]1C2CC[C@]2(C)c3nn(-c4ccc(F)cc4)nc3CC12 (stereo partly drawn) | > 100 µM | > 100 µM | > 100 µM | > 100 µM | > 100 µM | > 100 µM | > 100 µM | > 100 µM | > 100 µM | – | > 100 µM | – | > 100 µM | > 100 µM | > 100 µM | > 100 µM | > 100 µM | > 100 µM | > 100 µM | > 100 µM |
| CCn1nc(-c2ccccc2)c2c1N(C)c1ccccc1-n1c(-c3ccccc3)nnc1-2 | 26.8 µM | – | 26.3 µM | 32.2 µM | 52.4 µM | 19.8 µM | 28.6 µM | > 100 µM | 28.2 µM | 40.3 µM | – | > 100 µM | – | 32.7 µM | 46.9 µM | 28.2 µM | 26.6 µM | – | – | – |
| O=C1c2cc([N+](=O)[O-])cnc2S(=O)(=O)N1c1ccc(Br)cc1 | > 100 µM | > 100 µM | > 100 µM | > 100 µM | > 100 µM | > 100 µM | > 100 µM | > 100 µM | > 100 µM | > 100 µM | > 100 µM | > 100 µM | – | > 100 µM | > 100 µM | > 100 µM | > 100 µM | > 100 µM | > 100 µM | > 100 µM |
| CCN(CC)c1ccc(/C=c2\nc(-c3ccccc3)n3c2nc2ccccc23)cc1 | 88.3 µM | 9.72 µM | 18.8 µM | 68.6 µM | > 100 µM | > 100 µM | > 100 µM | 48.8 µM | > 100 µM | 26.6 µM | 32.2 µM | 6.3 µM | 61 µM | > 100 µM | 5.84 µM | > 100 µM | 30.9 µM | – | > 100 µM | – |
| COc1cc2c(cc1OC)C1=Cc3ccc(OC)c(OC)c3C(C#N)N1CC2 (stereo not drawn) | > 100 µM | > 100 µM | > 100 µM | > 100 µM | > 100 µM | > 100 µM | 81.3 µM | 82.3 µM | > 100 µM | > 100 µM | > 100 µM | 76.3 µM | – | > 100 µM | 40.4 µM | > 100 µM | 45.5 µM | > 100 µM | > 100 µM | > 100 µM |
| O=C1C=C(N2CCCC2)C(=O)c2c(O)ccc(O)c21 | > 10 µM | – | – | > 10 µM | > 10 µM | > 10 µM | > 10 µM | > 1 µM | > 1 µM | – | – | – | > 10 µM | > 10 µM | > 10 µM | > 1 µM | > 10 µM | > 10 µM | > 10 µM | – |
| Cc1ccc(S(=O)(=O)NC(=O)NC(Cc2ccccc2)C(=O)O)cc1 (stereo not drawn) | > 100 µM | – | > 100 µM | > 100 µM | > 100 µM | > 100 µM | > 100 µM | – | > 100 µM | > 100 µM | > 100 µM | > 100 µM | > 100 µM | > 100 µM | > 100 µM | > 100 µM | > 100 µM | > 100 µM | > 100 µM | > 100 µM |
